Laboratory results: patent US20210277020A1, “HETEROCYCLIC COMPOUNDS AS MONOACYLGLYCEROL LIPASE INHIBITORS” (Hoffmann-La Roche Inc., priority 2018, published 2021)

Target: T1, MAGL (Homo sapiens, UniProt Q99685)
T1 sequence (Q99685 1-303): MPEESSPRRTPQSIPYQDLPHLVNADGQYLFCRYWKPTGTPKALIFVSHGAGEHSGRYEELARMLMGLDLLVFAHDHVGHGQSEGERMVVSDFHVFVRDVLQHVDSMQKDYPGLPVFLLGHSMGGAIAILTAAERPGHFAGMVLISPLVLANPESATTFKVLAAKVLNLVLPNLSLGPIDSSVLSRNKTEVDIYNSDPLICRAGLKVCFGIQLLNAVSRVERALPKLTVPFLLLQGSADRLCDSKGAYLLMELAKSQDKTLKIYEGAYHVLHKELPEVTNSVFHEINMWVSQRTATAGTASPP
Experiment: 2-AG assay: MAGL inhibition followed by hydrolysis of 2-arachidonoylglycerol to arachidonic acid, mass spectrometry
Type: biochemical
Conditions: measured in 2-AG assay (footnote [a]); substrate 2-arachidonoylglycerol 8 μM, 30 min at RT
Source text: Alternatively, compounds were profiled for MAGL inhibitory activity by determining the enzymatic activity by following the hydrolysis of the natural substrate, 2-arachidonoylglycerol, resulting in arachidonic acid, which can be followed by mass spectrometry. This assay is hereinafter abbreviated “2-AG assay”.
Detection by mass spectrometry in the present 2-AG assay has the advantage over known optical assays that the natural enzyme substrate, 2-arachidonoylglycerol, can be used instead of structurally unrelated compounds needed for optical readouts (such as 4-NPA). It thereby delivers more relevant data for activity determination, reduces false positives and generally adds to data quality. In addition, this assay reduces the analysis time from about 10 minutes per sample with standard methods to under 10 seconds per sample. This allows for using the present 2-AG assay in a method for high throughput screening of compounds for their MAGL inhibitory activity.
The 2-AG assay was carried out in 384 well assay plates (PP, Greiner Cat #784201) in a total volume of 20 μL. Compound dilutions were made in 100% DMSO (VWR Chemicals 23500.297) in a polypropylene plate in 3-fold dilution steps to give a final concentration range in the assay from 12.5 μM to […]. 0.25 μL compound dilutions (100% DMSO) were added to 9 μL MAGL in assay buffer (50 mM TRIS (GIBCO, 15567-027), 1 mM EDTA (Fluka, 03690-100 mL), 0.01% (v/v) Tween. After shaking, the plate was incubated for 15 min at RT. To start the reaction, 10 μL 2-arachidonoylglycerol in assay buffer was added. The final concentrations in the assay was […] and 8 μM 2-arachidonoylglyerol. After shaking and 30 min incubation at RT, the reaction was quenched by the addition of 40 μL of acetonitrile containing 4 μM of d8-arachidonic acid. The amount of arachidonic acid was traced by an online SPE system (Agilent Rapidfire) coupled to a triple quadrupole mass spectrometer (Agilent 6460). A C18 SPE cartridge (G9205A) was used in an acetonitrile/water liquid setup. The mass spectrometer was operated in negative electrospray mode following the mass transitions 303.1→259.1 for arachidonic acid and 311.1→267.0 for d8-arachidonic acid. The activity of the compounds was calculated based on the ratio of intensities [arachidonic acid/d8-arachidonic acid].
In a preferred embodiment, the method for determining the MAGL inhibitory activity of a test compound according to the invention, comprises: • (i) providing a solution of a test compound; • (ii) adding the solution of step (i) to a solution of MAGL; • (iii) shaking the mixture obtained from step (ii); • (iv) incubating the mixture obtained from step (iii); • (v) adding a solution of 2-arachidonoylglycerol; • (vi) incubating the mixture obtained from step (v); • (vii) adding a solution of d8-arachidonic acid; and • (viii) determining the ratio of intensities arachidonic acid/d8-arachidonic acid using a mass spectrometer.

Structure (SMILES)	IC50 [nM]
O=C1CO[C@H]2CCN(C(=O)N3CC(C#Cc4ccc(C(F)(F)F)cc4)C3)C[C@H]2N1 [Example 167, (4aR,8aS)-6-[3-[2-[4-(Trifluoromethyl)phenyl]ethynyl]azetidine-1-carbonyl]-4,4a,5,7,8,8a-hexahydropyrido[4,3-b][1,4]oxazin-3-one]	10
Cc1c(F)cccc1C#CC1CN(C(=O)N2CC[C@@H]3OCC(=O)N[C@@H]3C2)C1 [Example 168, (4aR,8aS)-6-[3-[2-(3-Fluoro-2-methylphenyl)ethynyl]azetidine-1-carbonyl]-4,4a,5,7,8,8a-hexahydropyrido[4,3-b][1,4]oxazin-3-one]	6
Cc1cccc(C)c1C#CC1CN(C(=O)N2CC[C@@H]3OCC(=O)N[C@@H]3C2)C1 [Example 169, (4aR,8aS)-6-[3-[2-(2,6-Dimethylphenyl)ethynyl]azetidine-1-carbonyl]-4,4a,5,7,8,8a-hexahydropyrido[4,3-b][1,4]oxazin-3-one]	4
O=C1CO[C@H]2CCN(C(=O)N3CC(C#Cc4ccccc4OC(F)(F)F)C3)C[C@H]2N1 [Example 170, (4aR,8aS)-6-[3-[2-[2-(Trifluoromethoxy)phenyl]ethynyl]azetidine-1-carbonyl]-4,4a,5,7,8,8a-hexahydropyrido[4,3-b][1,4]oxazin-3-one]	4
O=C1CO[C@H]2CCN(C(=O)N3CC(C#Cc4ccccc4Br)C3)C[C@H]2N1 [Example 171, (4aR,8aS)-6-[3-[2-(2-Bromophenyl)ethynyl]azetidine-1-carbonyl]-4,4a,5,7,8,8a-hexahydropyrido[4,3-b][1,4]oxazin-3-one]	7
O=C1CO[C@H]2CCN(C(=O)N3CC(C#Cc4cccc(F)c4Cl)C3)C[C@H]2N1 [Example 172, (4aR,8aS)-6-(3-((2-Chloro-3fluorophenyl)ethynyl)azetidine-1-carbonyl)hexahydro-2H-pyrido[4,3-b][1,4]oxazin-3(4H)-one]	16
Cc1ccccc1C#CC1CN(C(=O)N2CC[C@@H]3OCC(=O)N[C@@H]3C2)C1 [Example 173, (4aR,8aS)-6-(3-(o-Tolylethynyl)azetidine-1-carbonyl)hexahydro-2H-pyrido[4,3-b][1,4]oxazin-3(4H)-one]	10
O=C1CO[C@H]2CCN(C(=O)N3CC(C#Cc4ccc(Cl)cc4F)C3)C[C@H]2N1 [Example 174, (4aR,8aS)-6-[3-[2-(4-Chloro-2-fluorophenyl)ethynyl]azetidine-1-carbonyl]-4,4a,5,7,8,8a-hexahydropyrido[4,3-b][1,4]oxazin-3-one]	12
O=C1CO[C@H]2CCN(C(=O)N3CC(C#Cc4ccccc4OC(F)F)C3)C[C@H]2N1 [Example 175, (4aR,8aS)-6-[3-[2-[2-(Difluoromethoxy)phenyl]ethynyl]azetidine-1-carbonyl]-4,4a,5,7,8,8a-hexahydropyrido[4,3-b][1,4]oxazin-3-one]	33
N#Cc1cccc(Cl)c1C#CC1CN(C(=O)N2CC[C@@H]3OCC(=O)N[C@@H]3C2)C1 [Example 176, 2-[2-[1-[(4aR,8aS)-3-oxo-4,4a,5,7,8,8a-Hexahydropyrido[4,3-b][1,4]oxazine-6-carbonyl]azetidin-3-yl]ethynyl]-3-chlorobenzonitrile]	50
O=C1CO[C@H]2CCN(C(=O)N3CC(C#Cc4ccc(OC(F)F)cc4)C3)C[C@H]2N1 [Example 177, (4aR,8aS)-6-[3-[2-[4-(Difluoromethoxy)phenyl]ethynyl]azetidine-1-carbonyl]-4,4a,5,7,8,8a-hexahydropyrido[4,3-b][1,4]oxazin-3-one]	22
N#CC1(c2ccc(C#CC3CN(C(=O)N4CC[C@@H]5OCC(=O)N[C@@H]5C4)C3)cc2)CC1 [Example 178, 1-[4-[2-[1-[(4aR,8aS)-3-Oxo-4,4a,5,7,8,8a-hexahydropyrido[4,3-b][1,4]oxazine-6-carbonyl]azetidin-3-yl]ethynyl]phenyl]cyclopropane-1-carbonitrile]	56
O=C1CO[C@H]2CCN(C(=O)N3CC(C#Cc4ccc(C5CC5)cc4)C3)C[C@H]2N1 [Example 179, (4aR,8aS)-6-[3-[2-(4-Cyclopropylphenyl)ethynyl]azetidine-1-carbonyl]-4,4a,5,7,8,8a-hexahydropyrido[4,3-b][1,4]oxazin-3-one]	6
O=C1CO[C@H]2CCN(C(=O)N3CC(C#Cc4ccc(C5(O)CC5)cc4)C3)C[C@H]2N1 [Example 180, (4aR,8aS)-6-[3-[2-[4-(1-Hydroxycyclopropyl)phenyl]ethynyl]azetidine-1-carbonyl]-4,4a,5,7,8,8a-hexahydropyrido[4,3-b][1,4]oxazin-3-one]	38
COc1cccc(C#CC2CN(C(=O)N3CC[C@@H]4OCC(=O)N[C@@H]4C3)C2)c1 [Example 181, (4aR,8aS)-6-[3-[2-(3-Methoxyphenyl)ethynyl]azetidine-1-carbonyl]-4,4a,5,7,8,8a-hexahydropyrido[4,3-b][1,4]oxazin-3-one]	13
O=C1CO[C@H]2CCN(C(=O)N3CC(C#Cc4ccccc4C(F)F)C3)C[C@H]2N1 [Example 182, (4aR,8aS)-6-[3-[2-[2-(Difluoromethyl)phenyl]ethynyl]azetidine-1-carbonyl]-4,4a,5,7,8,8a-hexahydropyrido[4,3-b][1,4]oxazin-3-one]	14
COc1cccc(C#CC2CN(C(=O)N3CC[C@@H]4OCC(=O)N[C@@H]4C3)C2)c1C [Example 183, (4aR,8aS)-6-[3-[2-(3-Methoxy-2-methylphenyl)ethynyl]azetidine-1-carbonyl]-4,4a,5,7,8,8a-hexahydropyrido[4,3-b][1,4]oxazin-3-one]	11
Cc1cccc(Cl)c1C#CC1CN(C(=O)N2CC[C@@H]3OCC(=O)N[C@@H]3C2)C1 [Example 184, (4aR,8aS)-6-[3-[2-(2-Chloro-6-methylphenyl)ethynyl]azetidine-1-carbonyl]-4,4a,5,7,8,8a-hexahydropyrido[4,3-b][1,4]oxazin-3-one]	6
O=C1CO[C@H]2CCN(C(=O)N3CC(C#Cc4cc(F)ccc4Cl)C3)C[C@H]2N1 [Example 185, (4aR,8aS)-6-[3-[2-(2-Chloro-5-fluorophenyl)ethynyl]azetidine-1-carbonyl]-4,4a,5,7,8,8a-hexahydropyrido[4,3-b][1,4]oxazin-3-one]	36
CS(=O)(=O)c1ccc(C#CC2CN(C(=O)N3CC[C@@H]4OCC(=O)N[C@@H]4C3)C2)cc1 [Example 186, (4aR,8aS)-6-[3-[2-(4-Methylsulfonylphenyl)ethynyl]azetidine-1-carbonyl]-4,4a,5,7,8,8a-hexahydropyrido[4,3-b][1,4]oxazin-3-one]	753
O=C1CO[C@H]2CCN(C(=O)N3CC(C#Cc4ccc(Cl)s4)C3)C[C@H]2N1 [Example 187, (4aR,8aS)-6-[3-[2-(5-Chlorothiophen-2-yl)ethynyl]azetidine-1-carbonyl]-4,4a,5,7,8,8a-hexahydropyrido[4,3-b][1,4]oxazin-3-one]	18
O=C1CO[C@H]2CCN(C(=O)N3CC(C#Cc4csc(Cl)c4)C3)C[C@H]2N1 [Example 188, (4aR,8aS)-6-[3-[2-(5-Chlorothiophen-3-yl)ethynyl]azetidine-1-carbonyl]-4,4a,5,7,8,8a-hexahydropyrido[4,3-b][1,4]oxazin-3-one]	13
O=C1CO[C@H]2CCN(C(=O)N3CC(C#Cc4c(F)cc(C(F)(F)F)cc4Cl)C3)C[C@H]2N1 [Example 189, (4aR,8aS)-6-[3-[2-[2-Chloro-6-fluoro-4-(trifluoromethyl)phenyl]ethynyl]azetidine-1-carbonyl]-4,4a,5,7,8,8a-hexahydropyrido[4,3-b][1,4]oxazin-3-one]	1
